Measurements as given in patent publication US20140336141A1, “MAO-B INHIBITORS DERIVED FROM THE ONE-CARBON CYCLE” (RANDOX LABORATORIES LTD., priority 2011, published 2014).

How the values were obtained:
Mao-B [1] = assay: Mao-B protein levels by Western blot in differentiated SH-SY5Y cells; type: cell-based; details: for Densitometric quantification Exp. 2 / Densitometric quantification Exp. 3 / Densitometric quantification Exp. 1: Mao-B Western blot band signal, Aza 625 nM, SAM 25 μM, Vit B6 5 μg/ml, Vit B12 7.5 μg/ml; for Densitometric quantification Exp. 2 / Densitometric quantification Exp. 3 / % MAO-B of untreated cells Exp. 2 / % MAO-B of untreated cells Exp. 3 / Densitometric quantification Exp. 1 / % MAO-B of untreated cells Exp. 1: differentiated SH-SY5Y cells treated Days 8 to 12; for % MAO-B of untreated cells Exp. 2 / % MAO-B of untreated cells Exp. 3 / % MAO-B of untreated cells Exp. 1: untreated set 100%; for % MAO-B of untreated cells Average: differentiated SH-SY5Y cells, average of the experiments
Procedure: The neuroblastoma cell line SH-SY5Y was seeded at 110,000 cell/6-well. Neuronal differentiation treatment was started on the next day (=Day 0) by addition of 10 μM retinoic acid every second day until Day 6. On Day 8 differentiation treatment was switched to 4 μM uridine (Ur), 5 μM 5-fluoro-2′-deoxyuridine FdUr), and 1 μM cytosine beta-D-arabinofuranoside (araC). During mitotic inhibitor addition (=Days 8 to 12) cells were left untreated or treated with 625 nM 5-aza-2′-deoxycytidine (Aza), 25 μM S-adenosylmethionine (SAM), 5 μg/ml vitamin B6 (Vit B6), 7.5 μg/ml vitamin B12 (Vit B12), or 5 μg/ml vitamin B6/7.5 μg/ml vitamin B12. On Day 12 cells were harvested. Cells were washed twice with chilled PBS, scraped off in PBS/protease inhibitors, and centrifuged at 15000×g at 4 C for 10 min. The pellet was reconstituted in 150 μl PBS/protease inhibitors and precipitated with 50 μl trichloroacetic acid/80 mMDTT for 1 hour at 4 C. After centrifugation at 15000×g at 4 C for 10 min, precipitated protein was washed four times with 0.6 ml acetone/20 mM DTT and stored at −80 C until analysis. The dried total protein pellet was reconstituted in 7M urea/2M thiourea/4% CHAPS buffer and the protein concentration was determined using the Coomassie Plus (Bradford) Protein Assay (Pierce, Thermo Scientific). Equal protein amounts were loaded onto an 11% SDS polyacrylamide gel and proteins were blotted onto nitrocellulose. Mao-B was detected using a polyclonal Goat anti-Mao-B antibody (sc18401, Santa Cruz) and DyLight 649 AffiniPureF(ab′)2 Fragment Donkey Anti-Goat IgGgamma (Jackson ImmunoResearch Laboratories, Inc.), and a Typhoon scanner (GE Healthcare Life Sciences). Results were analysed with the software ImageJ. The signals of the Mao-B bands of SAM treated and untreated differentiated SH-SY5Y cells were compared and the latter was set 100%.

Mao-B [2] = assay: MAO-B protein expression by Western blot in HepG2 cells, normalised against GAPDH and 14-3-3 gamma; type: cell-based; details: 10 μM 5-aza-2-deoxycytidine for 1, 2, or 3 days; FIG. 3
Procedure: HepG2 cells were grown in DMEM low glucose/10% FBS and were treated with 10 μM 5-aza-2-deoxycytidine for 1, 2, or 3 days. Untreated HepG2 cells served as controls. Cells were scraped in precipitation buffer (PBS/25% trichloroacetic acid/20 mM DTT/protease inhibitors) at 4 C and proteins were precipitated for 1 hour at 4 C. Precipitated proteins were pelleted at 15000 rpm for 10 min (4 C) and washed 4 times with 700 μl acetone/20 mM DTT. Before analysis by SDS PAGE and Western blot, the precipitated samples were reconstituted in DIGE buffer/1% pH 4-7 ampholyte. Six parallel experiments were performed. […] Two normalisation compounds were used: GAPDH (glyceraldehyde 3-phosphate dehydrogenase) and 14-3-3 gamma (protein kinase C inhibitor protein 1). Each Mao-B band signal was divided by the respective GAPDH or 14-3-3 gamma band signal to achieve normalisation.
HepG2 cells were grown in DMEM low glucose/2% FBS and were treated with vitamin B6 (300 μg/ml) and vitamin B12 (74.4 μg/ml) for 1, 3, 4, 5 and 7 days. Untreated HepG2 cells served as controls. Cells were harvested and analysed by Western blot.

platelet MAO activity = details: LOAD patients, vitamin B12 therapy; cited from earlier work

Row | Compound | Densitometric quantification Exp. 2 (Mao-B [1]) | Densitometric quantification Exp. 3 (Mao-B [1]) | % MAO-B of untreated cells Exp. 2 (Mao-B [1]) [%] | % MAO-B of untreated cells Exp. 3 (Mao-B [1]) [%] | % MAO-B of untreated cells Average (Mao-B [1]) [%] | MAO-B protein expression in HepG2 cells (Mao-B [2]) | Densitometric quantification Exp. 1 (Mao-B [1]) | % MAO-B of untreated cells Exp. 1 (Mao-B [1]) [%] | platelet MAO activity (platelet MAO activity)
1 | Nc1ncn([C@H]2C[C@H](O)[C@@H](CO)O2)c(=O)n1 [Aza, 5-aza-2′-deoxycytidine] | 1116.9 | 973.5 | 100 | 87 | 94 | increased levels of MAO-B are expressed | – | – | –
2 | C[S+](CC[C@H](N)C(=O)O)C[C@H]1O[C@@H](n2cnc3c(N)ncnc32)[C@H](O)[C@@H]1O (stereo partly shown) [SAM, S-adenosylmethionine] | 990.4 | 1006.8 | 89 | 90 | 80 | – | 2482.6 | 60 | –
3 | vitamin B6 [Vit B6] | 1008.1 | 1004.8 | 90 | 90 | 93 | – | 4087.1 | 99 | –
4 | vitamin B12 [Vit B12] | 857.8 | 695.3 | 77 | 62 | 77 | – | 3823.5 | 93 | significantly reduced
